Data from patent publication US10053477B2, “Spirocyclic aryl phosphorus oxide and aryl phosphorus sulfide” (QILU PHARMACEUTICAL CO., LTD., priority 2014, dated 2018).

Columns and labels:
[1] = system: LU-01-0319 xenotransplantation (PDX) from lung cancer patients; experiment: In vivo efficacy, LU-01-0319 xenotransplantation (PDX) from lung cancer patients; design: species or system BALB/c nude mice; settings: 10 mg/kg orally everyday
Source text: (§1) BALB/c nude mice, female, 6 to 8 weeks, about 18 to 22 g bodyweight, was kept in a special environment without pathogens, and a single ventilated cage (5 mice per cage). Beddings and water in all the cages were disinfected before use. All the animal had free access to standard authorized commercially available lab diet. 80 mice were supplied by Shanghai BK Laboratory Animal Co., LTD for study. Each mouse was subcutaneously implanted tumor tissue (20-30 mm^3) at right flank for growth of tumor. When the average tumor volume reached about 250-300 mm^3, the assay started. Test compounds were delivered orally everyday, 10 mg/kg. Tumor size was measured with two-dimensional caliper every 3 days, size was recorded by mm^3, and calculated by the following formula: V=V=0.5a×b2, where a and b are respectively the long diameter and short diameter length of the tumor. The antitumor efficacy was determined by dividing the average increased tumor volume in compound-treated animal by the average increased tumor volume in untreated animal.

[2] = system: LU-01-0319 Crizotinib resistance model; experiment: In vivo anti-tumor efficacy, Crizotinib resistant LU-01-0319 xenotransplantation (PDX) tumor; design: species or system BALB/c nude mice
Source text: LU-01-0319 xenotransplantation tumor models initially obtained from clinical sample through surgical resection were implanted into nude mice, which was defined as a batch of P0 (LU-01-0319-P0). The next batch was defined as P1 (LU-01-0319-P1) which was implanted tumors from P0. FP3 was regained from P2, the next batch was defined as FP4 which was implanted tumors from FP3. […] The continuous increasing tumors were defined as LU-01-0319 antitumor models. BALB/c nude mice, female, 6 to 8 weeks, about 18 to 22 g bodyweight, 75 mice were used for study, supplied by Shanghai BK Laboratory Animal Co., LTD. Tumour biopsies (about 30 mm^3) of LU-01-0319R FP6 were implanted subcutaneously on right side of each mouse for growth of tumor. […] Dose of Crizotinib was appropriately varied depending on the tumor size. When average tumor volume reached about ˜500 mm^3, the assay began. Once a day the compounds to be tested were orally administered. Tumor size were measured twice a week with a caliper at two dimensions, and calculated with the following formula: V=0.5a×b2, where a and b are respectively long diameter and short diameter of the tumor. The antitumor efficacy was determined by dividing the average increased tumor volume in compound-treated animal by the average increased tumor volume in untreated animal.

[3] = system: LU-01-0015 xenotransplantation (PDX) from lung cancer patients; experiment: In vivo efficacy, LU-01-0015 xenotransplantation (PDX) from lung cancer patients; design: species or system BALB/c nude mice; settings: for Tumor volume: 25 mg/kg orally everyday
Source text: as §1, with “All the animal had free access to standard authorized commercially available lab diet.” left out, “25” for “10”

[4] = target: T1, ALK L1196M (Homo sapiens, UniProt Q9UM73, L1196M); experiment: ALK L1196M enzymatic inhibition (HTRF); format: biochemical; settings: 30 μM ATP
T1 construct: purchased Carna Biosciences (Japan)
T1 sequence (Q9UM73 19-1620 L1196M): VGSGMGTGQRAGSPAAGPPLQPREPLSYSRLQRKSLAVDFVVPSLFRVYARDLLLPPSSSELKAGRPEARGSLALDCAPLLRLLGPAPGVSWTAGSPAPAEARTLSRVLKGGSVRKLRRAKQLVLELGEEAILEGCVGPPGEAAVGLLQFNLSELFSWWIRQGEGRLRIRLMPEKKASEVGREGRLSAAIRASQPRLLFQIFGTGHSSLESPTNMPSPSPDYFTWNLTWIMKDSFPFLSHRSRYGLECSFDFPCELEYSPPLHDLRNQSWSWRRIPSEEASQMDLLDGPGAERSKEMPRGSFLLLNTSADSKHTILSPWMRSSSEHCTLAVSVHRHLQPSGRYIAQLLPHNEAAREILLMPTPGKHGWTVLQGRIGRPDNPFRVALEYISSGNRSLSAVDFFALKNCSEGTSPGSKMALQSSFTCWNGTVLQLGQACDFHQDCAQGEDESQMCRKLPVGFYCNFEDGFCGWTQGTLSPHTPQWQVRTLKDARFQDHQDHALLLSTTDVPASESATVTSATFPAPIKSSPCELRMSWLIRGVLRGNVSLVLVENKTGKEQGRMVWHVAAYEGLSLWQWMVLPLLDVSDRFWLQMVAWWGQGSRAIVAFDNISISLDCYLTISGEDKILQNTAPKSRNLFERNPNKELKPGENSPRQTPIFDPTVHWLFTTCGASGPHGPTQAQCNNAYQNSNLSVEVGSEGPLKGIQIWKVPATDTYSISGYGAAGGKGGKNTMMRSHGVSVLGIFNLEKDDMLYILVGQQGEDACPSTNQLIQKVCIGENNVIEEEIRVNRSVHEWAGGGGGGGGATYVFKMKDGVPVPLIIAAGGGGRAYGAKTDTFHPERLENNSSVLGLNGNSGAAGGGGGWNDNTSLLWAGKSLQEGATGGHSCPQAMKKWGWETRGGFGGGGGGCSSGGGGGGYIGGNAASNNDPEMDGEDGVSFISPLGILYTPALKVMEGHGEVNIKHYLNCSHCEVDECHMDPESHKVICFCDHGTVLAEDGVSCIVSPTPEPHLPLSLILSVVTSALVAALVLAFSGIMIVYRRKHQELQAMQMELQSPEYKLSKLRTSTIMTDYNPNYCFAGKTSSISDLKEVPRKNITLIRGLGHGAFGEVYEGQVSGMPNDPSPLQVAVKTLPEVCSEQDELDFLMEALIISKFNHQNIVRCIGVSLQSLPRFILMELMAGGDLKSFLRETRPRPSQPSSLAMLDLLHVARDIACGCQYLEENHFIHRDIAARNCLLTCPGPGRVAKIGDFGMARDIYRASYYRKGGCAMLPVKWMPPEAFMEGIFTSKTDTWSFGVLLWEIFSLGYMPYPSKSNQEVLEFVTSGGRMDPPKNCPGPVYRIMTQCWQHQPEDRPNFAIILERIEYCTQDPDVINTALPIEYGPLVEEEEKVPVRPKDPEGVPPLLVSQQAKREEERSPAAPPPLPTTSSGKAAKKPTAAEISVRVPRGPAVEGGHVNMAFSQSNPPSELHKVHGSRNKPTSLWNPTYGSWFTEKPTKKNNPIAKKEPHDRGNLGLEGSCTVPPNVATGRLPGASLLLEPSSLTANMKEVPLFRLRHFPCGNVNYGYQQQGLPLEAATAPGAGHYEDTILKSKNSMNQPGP
Description: (§2) Enzyme: ALK wild-type, ALK C1156Y and ALK L1196M supplied by Carna Biosciences (Japan), EGFR T790M/L858R supplied by Life technology (Madison, Wis.).
(§3) HTRF kit: supplied by Cis-Bio International, with Eu-marked TK1 antibody, XL665- and biotin-labelled TK1 polypeptide substrates.
Reaction buffer: 50 mM Hepes (pH7.5), 10 mM MgCl2, 0.01 mM NaV3VO4.
(§4) Incubation was carried out for 60 minutes at room temperature. Detection was by Envision.

[5] = target: T2, ALK C1156Y (Homo sapiens, UniProt Q9UM73, C1156Y); experiment: ALK C1156Y enzymatic inhibition (HTRF); format: biochemical; settings: 30 μM ATP
T2 construct: purchased Carna Biosciences (Japan)
T2 sequence (Q9UM73 19-1620 C1156Y): as the sequence (Q9UM73 19-1620 L1196M) above, with C1138Y, M1178L counted along it
Description: as §2, §3
Reaction buffer: 50 mM Hepes (pH7.5), 10 mM MgCl2, 0.01 mM NaV3VO4. […] Reaction was reacted at room temperature for 60 minutes.
as §4

[6] = target: T3, EGFR T790M/L858R (Homo sapiens, UniProt P00533, L858R/T790M); experiment: EGFR T790M/L858R enzymatic inhibition (HTRF); format: biochemical; settings: 20 μM ATP
T3 construct: purchased Life technology (Madison, Wis.)
T3 sequence (P00533 25-1210 T790M/L858R): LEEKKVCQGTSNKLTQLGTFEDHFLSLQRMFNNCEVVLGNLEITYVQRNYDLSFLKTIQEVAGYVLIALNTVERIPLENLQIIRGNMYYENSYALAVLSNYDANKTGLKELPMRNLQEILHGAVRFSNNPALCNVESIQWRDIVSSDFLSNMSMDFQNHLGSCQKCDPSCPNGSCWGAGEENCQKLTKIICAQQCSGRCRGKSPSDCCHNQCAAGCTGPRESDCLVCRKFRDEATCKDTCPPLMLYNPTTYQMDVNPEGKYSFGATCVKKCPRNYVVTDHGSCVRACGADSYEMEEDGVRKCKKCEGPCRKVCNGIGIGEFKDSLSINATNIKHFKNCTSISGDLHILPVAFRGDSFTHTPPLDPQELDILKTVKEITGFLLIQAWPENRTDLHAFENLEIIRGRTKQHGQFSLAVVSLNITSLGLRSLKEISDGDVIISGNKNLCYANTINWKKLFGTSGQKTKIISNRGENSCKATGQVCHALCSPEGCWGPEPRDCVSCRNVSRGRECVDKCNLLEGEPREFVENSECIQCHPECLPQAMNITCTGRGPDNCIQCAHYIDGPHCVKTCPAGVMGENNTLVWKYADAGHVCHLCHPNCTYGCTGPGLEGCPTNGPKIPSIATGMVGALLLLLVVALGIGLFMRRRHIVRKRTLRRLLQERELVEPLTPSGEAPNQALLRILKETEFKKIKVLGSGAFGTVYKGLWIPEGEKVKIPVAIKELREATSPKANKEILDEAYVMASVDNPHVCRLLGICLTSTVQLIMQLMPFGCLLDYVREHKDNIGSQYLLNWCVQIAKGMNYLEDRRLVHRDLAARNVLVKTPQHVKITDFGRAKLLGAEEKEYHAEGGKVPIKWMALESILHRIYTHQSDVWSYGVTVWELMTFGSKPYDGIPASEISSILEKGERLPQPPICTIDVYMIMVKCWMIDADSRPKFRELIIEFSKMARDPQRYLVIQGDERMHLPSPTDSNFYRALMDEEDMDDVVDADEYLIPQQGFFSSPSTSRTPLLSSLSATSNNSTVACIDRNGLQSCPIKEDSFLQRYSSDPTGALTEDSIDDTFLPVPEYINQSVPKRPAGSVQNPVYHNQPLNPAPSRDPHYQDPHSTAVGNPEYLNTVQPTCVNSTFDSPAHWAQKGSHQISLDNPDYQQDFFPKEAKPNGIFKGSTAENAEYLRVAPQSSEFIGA
Description: as §2, §3
The compound to be tested is diluted at a gradient by 3 times thereby giving 11 gradients starting from […] to 0.017 nM for the final concentration.
10 μl EGFR T790M/L858R enzyme reaction mixture system: 0.08 nM EGFR T790M/L858R, 1 μM biotin-TK1 peptide, 20 μM ATP. Reaction buffer: 50 mM Hepes (pH7.5), 10 mM MgCl2, 0.01 mM NaV3VO4. The reaction plate was white Proxiplate 384-Plus plate (PerkinElmer). Reaction was reacted at room temperature for 60 minutes.
Detecting reaction: 10 μl testing reagent was added to the reaction plate, the final concentration of Antibody was 2 nM, XL665 was 62.5 nM. Incubation was carried out for 60 minutes at room temperature. Detection was by Envision.

[7] = target: T4, ALK wild-type (Homo sapiens, UniProt Q9UM73); experiment: ALK wild-type enzymatic inhibition (HTRF); format: biochemical; settings: 30 μM ATP
T4 construct: purchased Carna Biosciences (Japan)
T4 sequence (Q9UM73 19-1620): as the sequence (Q9UM73 19-1620 L1196M) above, with M1178L counted along it
Description: as §2, §3
10 μl wild-type ALK enzyme reaction mixture system: 0.5 nM wild-type ALK, 1 μM biotin-TK1 peptide, 30 μM ATP. Reaction buffer: 50 mM Hepes (pH7.5), 10 mM MgCl2, 0.01 mM NaV3VO4.
as §4

COc1cc(N2CCC(N3CCN(C)CC3)CC2)ccc1Nc1ncc(Cl)c(Nc2ccccc2P(C)(C)=O)n1 [AP26113, reference compound]
Tumor volume ([1]; 0 days): 371 mm^3 | Tumor volume ([1]; 2 days): 437 mm^3 | Tumor volume ([1]; 6 days): 448 mm^3 | Tumor volume ([1]; 9 days): 485 mm^3 | Tumor volume ([1]; 13 days): 512 mm^3 | Tumor volume ([1]; 16 days): 492 mm^3 | Tumor volume ([1]; 20 days): 457 mm^3 | Tumor volume ([1]; 23 days): 391 mm^3 | Tumor volume ([2]; 0 day, dosage 3 mg/Kg orally once a day): 501 mm^3 | Tumor volume ([2]; 0 day, dosage 10 mg/Kg orally once a day): 502 mm^3 | Tumor volume ([2]; 3 days, dosage 3 mg/Kg orally once a day): 656 mm^3 | Tumor volume ([2]; 3 days, dosage 10 mg/Kg orally once a day): 646 mm^3 | Tumor volume ([2]; 7 days, dosage 3 mg/Kg orally once a day): 690 mm^3 | Tumor volume ([2]; 7 days, dosage 10 mg/Kg orally once a day): 604 mm^3 | Tumor volume ([2]; 10 days, dosage 3 mg/Kg orally once a day): 898 mm^3 | Tumor volume ([2]; 10 days, dosage 10 mg/Kg orally once a day): 593 mm^3 | Tumor volume ([2]; 13 days, dosage 3 mg/Kg orally once a day): 1096 mm^3 | Tumor volume ([2]; 13 days, dosage 10 mg/Kg orally once a day): 504 mm^3 | Tumor volume ([2]; 17 days, dosage 3 mg/Kg orally once a day): 1415 mm^3 | Tumor volume ([2]; 17 days, dosage 10 mg/Kg orally once a day): 568 mm^3 | Tumor volume ([2]; 19 days, dosage 3 mg/Kg orally once a day): 1499 mm^3 | Tumor volume ([2]; 19 days, dosage 10 mg/Kg orally once a day): 508 mm^3 | Tumor volume ([3]; 3 days): 207 mm^3 | Tumor volume ([3]; 6 days): 174 mm^3 | Tumor volume ([3]; 9 days): 162 mm^3 | Tumor volume ([3]; 12 days): 142 mm^3 | Tumor volume ([3]; 16 days): 119 mm^3 | Tumor volume ([3]; 19 days): 122 mm^3 | Tumor volume ([3]; 23 days): 119 mm^3 | tumor volume was reduced to (from 277 mm^3) ([3]; after 16 days, 25 mg/kg): 119 mm^3

COc1ccc(C2CC3(CCN(C)C3)C2)cc1Nc1ncc(Cl)c(Nc2ccccc2P(C)(C)=O)n1 (stereo not shown) [Compound 1, (2-((5-chloro-2-((2-methoxy-5-(6-methyl-6-azaspiro[3.4]octan-2-yl)phenyl)amino)pyrimidin-4-yl)amino)phenyl)dimethylphosphine oxide]
IC50 [4]: 101 to 1000 nM | IC50 [5]: 101 to 1000 nM | IC50 [6]: 101 to 1000 nM | IC50 [7]: 1 to 100 nM

COc1ccc(C2CC3(CC(=O)N(C)C3)C2)cc1Nc1ncc(Cl)c(Nc2ccccc2P(C)(C)=O)n1 (stereo not shown) [Compound 2, 2-(3-((5-Chloro-4-((2-(dimethylphosphoryl)phenyl)amino)pyrimidin-2-yl)amino)-4-methoxyphen-yl)-6-methyl-6-azaspiro[3.4]octan-7-one]
IC50 [4]: 101 to 1000 nM | IC50 [5]: 101 to 1000 nM | IC50 [6]: 101 to 1000 nM | IC50 [7]: 101 to 1000 nM

COc1cc(N2CCC3(CN(C)C3)C2)ccc1Nc1ncc(Cl)c(Nc2ccccc2P(C)(C)=O)n1 [Compound 7, (2-((5-Chloro-2-((2-methoxy-4-(2-methyl-2,6-diazaspiro[3.4]octan-6-yl)phenyl)amino)pyrimidin-4-yl)amino)phenyl)dimethyl phosphine oxide]
IC50 [4]: 101 to 1000 nM | IC50 [5]: 101 to 1000 nM | IC50 [6]: 101 to 1000 nM | IC50 [7]: 1 to 100 nM

COc1cc(N2CCC3(CC2)CCN(C(C)C)CC3)ccc1Nc1ncc(Cl)c(Nc2ccccc2P(C)(C)=O)n1 [Compound 10, (2-((5-Chloro-2-((4-(9-isopropyl-3,9-diazaspiro[5.5]undecan-3-yl)-2-methoxyphenyl)amino)pyrimidin-4-yl)amino)phenyl)dimethyl phosphine oxide]
IC50 [4]: 1 to 100 nM | IC50 [5]: 1 to 100 nM | IC50 [6]: 1 to 100 nM | IC50 [7]: 1 to 100 nM

COc1cc(N2CCC3(CC2)CC(N(C)C)C3)ccc1Nc1ncc(Cl)c(Nc2ccccc2P(C)(C)=O)n1 [Compound 13, (2-((5-Chloro-2-((4-(2-(dimethylamino)-7-azaspiro[3.5]nonan-7-yl)-2-methoxyphenyl)amino)pyrimidin-4-yl)amino)phenyl)dimethyl phosphine oxide]
IC50 [4]: 1 to 100 nM | IC50 [5]: 1 to 100 nM | IC50 [6]: 1 to 100 nM | IC50 [7]: 1 to 100 nM

Cc1cc(Nc2ncc(Cl)c(Nc3ccccc3S(=O)(=O)C(C)C)n2)c(OC(C)C)cc1C1CCNCC1 [LDK378]
Tumor volume ([1]; 0 days): 373 mm^3 | Tumor volume ([1]; 2 days): 397 mm^3 | Tumor volume ([1]; 6 days): 366 mm^3 | Tumor volume ([1]; 9 days): 350 mm^3 | Tumor volume ([1]; 13 days): 425 mm^3 | Tumor volume ([1]; 16 days): 369 mm^3 | Tumor volume ([1]; 20 days): 329 mm^3 | Tumor volume ([1]; 23 days): 268 mm^3
